Patent US10907168B2, “Jasmonic acid pathway activator” (MEDICAGO INC., priority 2015, dated 2021)

System: C5-1 antibody
Test: C5-1 antibody quantification by ELISA in agroinfiltrated leaves
Format: in vivo, Nicotiana benthamiana
Details: ELISA; 1 mM, leaves treated 24 h before infiltration
Description: Forty-two day-old N. benthamiana plants grown in greenhouse were used for the experiments. Each plant was sprayed evenly with 50 ml of 0.5 mM, 1 mM or 2 mM MeJA in water containing 0.1% (v/v) Triton X-100 (Sigma-Aldrich, Mississauga ON, Canada), or with 50 ml of 1 mM arachidonic acid (Girard et al., 2007) in the same solvent, and transferred for seven days in a Conviron growth chamber (Conviron, Winnipeg MB, Canada). Plants sprayed with 50 ml of 0.1% (v/v) Triton X-100 in water were used in parallel as negative controls to avoid confounding effects due to experimental conditions. Two or three 1-cm^2 leaf discs were harvested from the third main stem leaf (see Robert et al., 2013) after seven days, as source material for protein and RNA extraction. The leaf samples were frozen immediately in liquid nitrogen and stored at −80° C. until protein or RNA extraction. Three to five biological (plant) replicates were used for each treatment, to allow for statistical treatment of the data. Two gene vectors were used for the agroinfiltration assays: an engineered pcambia2300 vector encoding the light and heavy chains of C5-1 fused to an N-terminal signal peptide sequence for cellular secretion (see Goulet et al., 2012 for details on gene construct); and the original (“empty”) pcambia2300 binary vector (CAMBIA, Canberra, Australia) as a control for agroinfection. The two binary vectors were electroporated into A. tumefaciens strain LBA4404 and the cultures were maintained in Luria-Bertani (LB) medium supplemented with 50 μg/ml kanamycin and 50 μg/ml rifampicin. For infiltration, bacteria were grown to stable phase at 28° C. to an OD600 of 1.0 and collected by centrifugation at 2,000 g. The bacterial pellets were resuspended in 10 mM 2-[N-morpholino] ethanesulfonic acid] (MES) buffer, pH 5.8, containing 100 μM acetosyringone and 10 mM MgCl2. Leaf infiltration was performed using a needle-less syringe as described earlier (D'Aoust et al., 2009), after mixing the C5-1 antibody (or empty vector) agrobacterial suspension with an equal volume of bacterial suspension carrying a binary vector for the protein silencing suppressor p19 (Voinnet et al., 2003). Infiltrated tissue for molecular characterization was collected six days post-infection (i.e. seven days post-MeJA or arachidonate treatment), unless otherwise indicated. Three to five biological (plant) replicates were used for each treatment to allow for statistical analyses. ELISA plates for C5-1 antibody quantification (Becton Dickinson, Mississauga ON, Canada) were coated with 3.75 μg/ml goat anti-mouse heavy chain-specific IgG1 (Sigma-Aldrich) in 50 mM carbonate buffer (pH 9.0) at 4° C. for 16-18 h. The plates were washed three times in 10 mM phosphate-buffered saline containing 0.1% (v/v) Tween 20 (PBS-T), blocked through a 1-h incubation at 37° C. in 1% (w/v) casein in phosphate-buffered saline (PBS) (Pierce, Rockford Ill., USA), and washed three times in PBS-T. A standard curve was generated for each plate with 0, 4, 8, 16, 24, 32, 40 and 60 ng/ml of purified mouse IgG1 (Sigma-Aldrich). All dilutions (controls and samples) were performed in a control extract obtained from leaf tissue infiltrated with a mock inoculum so that any matrix effect was eliminated. The plates were incubated with protein samples for 1 h at 37° C., washed three times in PBS-T and then incubated with peroxidase-conjugated goat anti-mouse IgG (H+L) antibodies (0.02 μg/ml in blocking solution) (Jackson ImmunoResearch) for 1 h at 37° C. After additional washes with PBS-T, the plates were incubated with the 3,3′,5,5′-tetramethylbenzidine Sure Blue peroxidase substrate (KPL, Gaithersburg Md., USA). The reaction was stopped by the addition of 1 N HCl and the absorbance was read at 450 nm. Three independent (biological) replicates were used for each assay.

With `CCCCC/C=C\C/C=C\C/C=C\C/C=C\CCCC(=O)O` [arachidonic acid] the C5-1 yield change was “No yield increase”.
